Patent US10040802B2, “Thienopyrazine inhibitors of IRAK4 activity” (MERCK SHARP & DOHME CORP., priority 2015, dated 2018)
Structures can show the parent of a compound that is named as a salt.

Molecular target: GST tagged IRAK4 (Homo sapiens (Human), UniProt Q9NWZ3)
Assay: IRAK4 Kinase Assay (IMAP fluorescence polarization)
Format: biochemical
Settings: 0.5 nM GST tagged IRAK4, 100 μM ATP, 30 minutes at 25° C.
Experimental: The kinase activity of IRAK4 is determined by its ability to catalyze the phosphorylation of a fluorescent polypeptide substrate. The extent of phosphorylation is measured using the IMAP technology (Molecular Devices) where the phosphorylated fluorescent substrate binds to the large M(III)-based nanoparticles which reduces the rotational speed of the substrate and thus increases its fluorescent polarization (FP).
20 μL reaction mixture contains 10 mM TriHCl, pH 7.2, 0.5 nM GST tagged IRAK4 (SignalChem), 100 nM fluorescent peptide substrate (RP7030, Molecular Devices), 100 μM ATP, 1 mM DDT, 1 mM MgCl2, and 0.01% Tween 20. The reaction is initiated by the addition of ATP. After incubation for 30 minutes at 25° C., 60 μL of Progressive IMAP Reagent (Molecular Devices) is added to stop the reaction. Change in RP7030's FP is determined by a FP reader (Analyst HT, LJL BioSystems).

Chain of GST tagged IRAK4 (Q9NWZ3 whole entry): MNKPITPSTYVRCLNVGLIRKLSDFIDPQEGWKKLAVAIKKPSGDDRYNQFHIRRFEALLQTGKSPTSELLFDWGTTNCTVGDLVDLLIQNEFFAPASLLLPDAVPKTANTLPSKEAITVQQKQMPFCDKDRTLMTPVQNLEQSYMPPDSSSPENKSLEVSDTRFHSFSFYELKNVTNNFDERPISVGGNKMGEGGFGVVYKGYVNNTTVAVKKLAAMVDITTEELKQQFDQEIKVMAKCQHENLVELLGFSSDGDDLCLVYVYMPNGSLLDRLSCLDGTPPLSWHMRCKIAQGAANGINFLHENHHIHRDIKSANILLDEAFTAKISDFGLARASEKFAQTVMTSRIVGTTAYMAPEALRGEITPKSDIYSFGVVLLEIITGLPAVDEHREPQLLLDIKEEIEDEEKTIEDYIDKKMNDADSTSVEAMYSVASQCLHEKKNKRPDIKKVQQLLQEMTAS

Q: How did the IC50 turn out when `Cn1cc(NC(=O)c2csc3ncc(N4C[C@@H]5CC[C@H]4CN5)nc23)c(C#N)n1` (single isomer, unassigned) [Example 26, N-(3-cyano-1-methyl-1H-pyrazol-4-yl)-2-[(1S,4S)- or (1R,4R)-2,5-diazabicyclo[2.2.2]oct-2-yl]thieno[2,3-b] pyrazine-7-carboxamide trifluoroacetate] was run?
A: 46 nM

Q: With `Cn1cc(NC(=O)c2csc3ncc(N4CCNCC4)nc23)c(C(F)F)n1` [Example 12, N-[3-(difluoromethyl)-1-methyl-1H-pyrazol-4-yl]-2-piperazin-1-ylthieno[2,3-b] pyrazine-7-carboxamide trifluoroacetate] as the molecule, how does the IC50 read?
A: 3 nM

Q: How did the IC50 turn out when `Cn1cc(NC(=O)c2csc3ncc(N[C@H]4CCCCNC4)nc23)c(C(F)(F)F)n1` (single isomer, unassigned) [Example 31, 2-[(3S)- or (3R)-azepan-3-ylamino]-N-[1-methyl-3-(trifluoromethyl)-1H-pyrazol-4-yl] thieno[2,3-b] pyrazine-7-carboxamide trifluoroacetate] was run?
A: 7 nM

Q: Which IC50 does the source give for `Cn1cc(NC(=O)c2csc3ncc(NC4CCCCNC4)nc23)c(C(F)(F)F)n1` (stereo not drawn) [Example 15, 2-(azepan-3-ylamino)-N-[1-methyl-3 (trifluoromethyl)-1H-pyrazol-4-yl]thieno[2,3-b] pyrazine-7-carboxamide trifluoroacetate] here?
A: 4 nM

Q: Which IC50 does the source give for `Cn1cc(NC(=O)c2csc3ncc(N[C@H]4CCCCNC4)nc23)c(C(F)F)n1` (single isomer, unassigned) [Example 34, 2-[(3S)- or (3R)-azepan-3-ylamino]-N-[3-(difluoromethyl)-1-methyl-1H-pyrazol-4-yl]thieno[2,3-b] pyrazine-7-carboxamide trifluoroacetate] here?
A: 2 nM

Q: How did the IC50 turn out when `O=C(Nc1ccccc1Br)c1csc2ncc(N3CCCNCC3)nc12` [Example 82, N-(2-bromophenyl)-2-(1,4-diazepan-1-yl)thieno[2,3-b]pyrazine-7-carboxamide trifluoroacetate] was run?
A: 2340 nM

Q: With `N#Cc1ccccc1NC(=O)c1csc2ncc(N3CCCNCC3)nc12` [Example 80, N-(2-Cyanophenyl)-2-(1,4-diazepan-1-yl)thieno[2,3-b]pyrazine-7-carboxamide] as the molecule, how does the IC50 read?
A: 558 nM

Q: With `Cn1cc(NC(=O)c2csc3ncc(N[C@@H]4CCCCNC4)nc23)c(C(F)(F)F)n1` (single isomer, unassigned) [Example 38, 2-[(3S)- or (3R)-azepan-3-ylamino]-N-[1-methyl-3-(trifluoromethyl)-1H-pyrazol-4-yl]thieno[2,3-b] pyrazine-7-carboxamide trifluoroacetate] as the molecule, how does the IC50 read?
A: 0.6 nM

Q: How did the IC50 turn out when `N#Cc1ccccc1NC(=O)c1csc2ncc(N[C@@H]3CCCNC3)nc12` [Example 85, N-(2-cyanophenyl)-2-[(3R)-piperidin-3-ylamino]-thieno[2,3-b]-pyrazine-7-carboxamide trifluoroacetate] was run?
A: 2 nM

Q: How did the IC50 turn out when `Cn1cc(NC(=O)c2csc3ncc(N[C@@H]4CCCC[C@@H]4N)nc23)c(Cl)n1` [Example 35, 2-{[(1R,2S)-2-aminocyclohexyl]amino}-N-(3-chloro-1-methyl-1H-pyrazol-4-yl)thieno[2,3-b] pyrazine-7-carboxamide trifluoroacetate] was run?
A: 0.3 nM

Q: With `Cn1cc(NC(=O)c2csc3ncc(N[C@@H]4CCCNC4)nc23)c(C(F)F)n1` [Example 32, N-[3-(difluoromethyl)-1-methyl-1H-pyrazol-4-yl]-2-[(3R)-piperidin-3-ylamino]thieno [2,3-b]pyrazine-7-carboxamide] as the molecule, how does the IC50 read?
A: 0.4 nM

Q: How did the IC50 turn out when `O=C(Nc1ccsc1Cl)c1csc2ncc(N3C[C@@H]4CC[C@H]3CN4)nc12` (single isomer, unassigned) [Example 61, N-(2-chlorothiophen-3-yl)-2-[(1S,4S)- or (1R,4R)-2,5-diazabicylo[2.2.2]oct-2-yl]thieno[2,3-b] pyrazine-7-carboxamide trifluoroacetate] was run?
A: 689 nM

Q: How did the IC50 turn out when `O=C(Nc1ccccc1C(F)(F)F)c1csc2ncc(N3CCCNCC3)nc12` [Example 90, 2-(1,4-diazepan-1-yl)-N-[2-(trifluoromethyl)phenyl]thieno[2,3-b]pyrazine-7-carboxamide trifluoroacetate] was run?
A: 6400 nM

Q: Which IC50 does the source give for `O=C(Nc1cscc1Br)c1csc2ncc(N3C[C@H]4CC[C@@H]3CN4)nc12` (single isomer, unassigned) [Example 49, N-(4-bromothiophen-3-yl)-2-[(1S,4S)- or (1R,4R)-2,5-diazabicyclo[2.2.2]oct-2-yl]thieno[2,3-b] pyrazine-7-carboxamide trifluoroacetate] here?
A: 213 nM

Q: With `O=C(Nc1ccccc1Br)c1csc2ncc(N3C[C@H]4CC[C@@H]3CN4)nc12` (single isomer, unassigned) [Example 89, N-(2-bromophenyl)-2-[(1S,4S)- or (1R,4R)-2,5-diazabicyclo-[2.2.2]oct-2-yl]thieno[2,3-b]-pyrazine-7-carboxamide trifluoroacetate] as the molecule, how does the IC50 read?
A: 612 nM

Q: Which IC50 does the source give for `N#Cc1cscc1NC(=O)c1csc2ncc(N3CCCNCC3)nc12` [Example 55, N-(4-cyanothiophen-3-yl)-2-(1,4-diazepan-1-yl)thieno[2,3-b] pyrazine-7-carboxamide trifluoroacetate] here?
A: 189 nM

Q: For `Cn1cc(NC(=O)c2csc3ncc(N4CC5CCC4CN5)nc23)c(C(F)(F)F)n1` (stereo not drawn) [Example 7, 2-(2,5-diazabicyclo[2.2.2]oct-2-yl)-N-[1-methyl-3-(trifluoromethyl)-1H-pyrazol-4-yl] thieno[2,3-b] pyrazine-7-carboxamide], which IC50 is on record?
A: 109 nM

Q: How did the IC50 turn out when `N[C@@H]1[C@H](Nc2cnc3scc(C(=O)Nc4cscc4Br)c3n2)CCCC1(F)F` [Example 68, 2-{[(1R,2R)-2-amino-3,3-difluorocyclohexyl]amino}-N-(4-bromothiophen-3-yl) thieno[2,3-b] pyrazine-7-carboxamide formate] was run?
A: 2100 nM

Q: With `N[C@H]1CCCC[C@H]1Nc1cnc2scc(C(=O)Nc3ccsc3Br)c2n1` [Example 54, 2-{[(1R,2S)-2-amino-cyclohexyl]amino}-N-(2-bromothiophen-3-yl)thieno[2,3-b] pyrazine-7-carboxamide trifluoroacetate] as the molecule, how does the IC50 read?
A: 1 nM

Q: For `Cn1cc(NC(=O)c2csc3ncc(N4CCCNCC4)nc23)c(Cl)n1` [Example 18, N-(3-chloro-1-methyl-1H-pyrazol-4-yl)-2-(1,4-diazepan-1-yl)thieno[2,3-b] pyrazine-7-carboxamide trifluoroacetate], which IC50 is on record?
A: 14 nM

Q: For `O=C(Nc1cscc1C(F)F)c1csc2ncc(N3C[C@@H]4CC[C@H]3CN4)nc12` (single isomer, unassigned) [Example 58, 2-[(1S,4S)- or (1R,4R)-2,5-diazabicyclo [2.2.2]oct-2-yl]-N-[4-(difluoromethyl)thiophen-3-yl] thieno[2,3-b] pyrazine-7-carboxamide trifluoroacetate], which IC50 is on record?
A: 285 nM

Q: `O=C(Nc1ccsc1C(F)(F)F)c1csc2ncc(N3CCCNCC3)nc12` [Example 73, 2-(1,4-diazepan-1-yl)-N-[2-(trifluoromethyl)thiophen-3-yl] thieno[2,3-b] pyrazine-7-carboxamide trifluoroacetate] was tested. Which IC50 did it give?
A: 1590 nM

Q: `Cn1cc(NC(=O)c2csc3ncc(N[C@@H]4CCCC[C@@H]4O)nc23)c(C(F)(F)F)n1` [Example 3, 2-{[(1R,2S)-2-hydroxycyclohexyl]amino}-N-[1-methyl-3-(trifluoromethyl)-1H-pyrazol-4-yl] thieno[2,3-b] pyrazine-7-carboxamide trifluoroacetate] was tested. Which IC50 did it give?
A: 100 nM

Q: How did the IC50 turn out when `N[C@H]1CCCC[C@H]1Nc1cnc2scc(C(=O)Nc3cscc3C(F)F)c2n1` [Example 50, 2-{[(1R,2S)-2-aminocyclohexyl]amino}-N-(4-(difluoromethyl)thiophen-3-yl] thieno[2,3-b] pyrazine-7-carboxamide trifluoroacetate] was run?
A: 0.7 nM

Q: With `O=C(Nc1ccccc1Br)c1csc2ncc(N3C[C@@H]4CC[C@H]3CN4)nc12` (single isomer, unassigned) [Example 88, N-(2-bromophenyl)-2-[(1S,4S)- or (1R,4R)-2,5-diazabicyclo-[2.2.2]oct-2-yl]thieno[2,3-b]-pyrazine-7-carboxamide trifluoroacetate] as the molecule, how does the IC50 read?
A: 2870 nM

Q: Which IC50 does the source give for `N[C@H]1CCCC[C@H]1Nc1cnc2scc(C(=O)Nc3cscc3Cl)c2n1` [Example 110, 2-{[(1R,2S)-2-aminocyclohexyl]-amino}-N-(4-chlorothiophen-3-yl)thieno[2,3-b]-pyrazine-7-carboxamide trifluoroacetate] here?
A: 0.7 nM

Q: `O=C(Nc1ccsc1Cl)c1csc2ncc(N3C[C@H]4CC[C@@H]3CN4)nc12` (single isomer, unassigned) [Example 62, N-(2-chlorothiophen-3-yl)-2-[(1S,4S)- or (1R,4R)-2,5-diazabicylo[2.2.2]oct-2-yl]thieno[2,3-b] pyrazine-7-carboxamide trifluoroacetate] was tested. Which IC50 did it give?
A: 274 nM

Q: Which IC50 does the source give for `N#Cc1ccccc1NC(=O)c1csc2ncc(N[C@@H]3CCCCNC3)nc12` (single isomer, unassigned) [Example 94, 2-[(3S)- or (3R)-azepan-3-ylamino]-N-(2-cyanophenyl)-thieno[2,3-b]-pyrazine-7-carboxamide trifluoroacetate] here?
A: 9 nM

Q: For `Cn1cc(NC(=O)c2csc3ncc(N[C@@H]4CCCC[C@@H]4N)nc23)c(Br)n1` [Example 30, 2-{[(1R,2S)-2-aminocyclohexyl]amino}-N-(3-bromo-1-methyl-1H-pyrazol-4-yl)thieno[2,3-b] pyrazine-7-carboxamide trifluoroacetate], which IC50 is on record?
A: 0.6 nM

Q: Which IC50 does the source give for `O=C(Nc1cscc1Cl)c1csc2ncc(N3CCCNCC3)nc12` [Example 107, N-(4-chlorothiophen-3-yl)-2-(1,4-diazepan-1-yl)-thieno[2,3-b]-pyrazine-7-carboxamide trifluoroacetate] here?
A: 151 nM
